Assay results published in US8742156B2 (priority 2010, dated 2014).
Structures can show the parent of a compound that is named as a salt.

Test system: H1N1 virus (A/Vicotria/07159200/07 (Tamiflu-resistant strain))
Type: cell-based, Human influenza H1N1 virus
Conditions: for effect on viral titers of Tamiflu-resistant (Tami-R) H1N1 virus: FIG. 1, multiplicity of infection of 0.2

SMILES | effect on viral titers of Tamiflu-resistant (Tami-R) H1N1 virus | viral titer of Tami-R H1N1-infected cells decreased (fold) (FIG. 1, multiplicity of infection of 0.2, 48-hour post-infection) | Tami-R H1N1 viral titers decreased (%) (10 uM, multiplicity of infection of 0.2, 48-hour post-infection)
N=C(Nc1ccccc1)SCCCSC(=N)Nc1ccccc1 [Compound 58, Carbamimidothioic acid, phenyl-, 1,3-propanediyl ester, dihydrobromide] | potent inhibitory effects | 4 fold | –
CCOC(=O)C1=C[C@@H](OC(CC)CC)[C@H](NC(C)=O)[C@@H](N)C1 [Tamiflu, oseltamivir, reference compound] | minimal effects | – | 20%
